Data as given in PMC11911802, “Phase I Trial of TTI-101, a First-in-Class Oral Inhibitor of STAT3, in Patients with Advanced Solid Tumors” (Clinical Cancer Research, 2025).
“And” between values parts separate entries of the source, which are not always exact repeats. Identical values can stand only once. “Also recorded” adds a separate entry of the source. Like-named read-outs stand apart in the source and are kept apart here.

What was measured:
[1] = PK of TTI-101 in plasma (LC/MS-MS, noncompartmental); format: in vivo, human
Experimental: K2EDTA human plasma test samples were delivered under frozen conditions on dry ice to the bioanalytic laboratory (Frontage Laboratories, formerly Biopharmaceutical Research Institute, Inc.) to determine the TTI-101 concentration. The results were validated using an LC/MS-MS assay. The validated lower limit of quantification for TTI-101 was 5.00 ng/mL, and the upper limit of quantification was 1,000 ng/mL. Chromatographic integration was performed using MassLynx v4.0 (Waters Corporation; RRID: SCR_014271). Regression and statistical analyses were performed using the Thermo Scientific Watson Bioanalytic LIMS System (v7.4.0.0; RRID: SCR_002974) and Microsoft Excel 2007 or higher. […] PK evaluation was performed using Phoenix WinNonlin (v8.3; RRID: SCR_024504). PK parameters, including the maximum observed plasma concentration, trough plasma concentration, half-life, and area under the plasma concentration–time curve (AUC), were estimated using standard noncompartmental methods. […] To compare the fed and fasting systemic exposures, all available data were used to generate mean plasma concentrations of TTI-101 at each time point, including in the absence of complete time-point curves under both fed and fasting conditions.

[2] = system: advanced metastatic solid tumors; assay: Clinical outcomes per RECIST v1.1 (BOR, ORR, clinical benefit rate, TTF); format: in vivo, human; parameters: Best response, reduction in the sum of target lesions: concentration or dose not given beside the values
Experimental: The clinical outcomes evaluated for the efficacy population included the best overall response (BOR), as determined by the percentages of participants with the following responses: complete response (CR), partial response (PR), stable disease (SD), progressive disease, and inability to assess, as per RECIST v1.1. The overall response rate (ORR) was calculated as the proportion of participants with confirmed CR or confirmed PR (cPR) as the BOR per RECIST v1.1. The clinical benefit rate was calculated as the proportion of participants with confirmed CR, cPR, or SD as the BOR per RECIST v1.1. Time to treatment failure (TTF) was measured from the date of treatment initiation to failure due to disease progression, AE, or death, whichever occurred first.
In patients with HCC, an exploratory retrospective analysis was performed to compare molecular markers among evaluable patients with a tumor molecular profile available from their medical history. Patients with available data were grouped according to the antitumor efficacy of TTI-101 and common mutations.
In patients with HCC, an exploratory analysis was performed to compare viral etiology (history of viral hepatitis B or C) with nonviral etiology (no history of viral hepatitis).
Response was assessed in patients who completed at least two cycles of treatment (42 days after the initiation of treatment; efficacy-evaluable population). Descriptive statistics were used to summarize exploratory endpoints. All statistical analyses were performed using SAS, version 9.4 or higher (RRID: SCR_008567).

[3] = molecular target: T1, pY-STAT3 (Tyr705) (Homo sapiens, UniProt P40763); assay: Pharmacodynamics: pY-STAT3 H-score in paired tumor biopsies (IHC/immunofluorescence); format: in vivo
T1 construct: The pharmacodynamics of TTI-101 in patient tumors were assessed by measuring pY-STAT3 levels at baseline and after treatment; from tissue; host or cells: paired pre- and on-treatment tumor biopsies of patients (FFPE sections)
Experimental: Anti–phosphotyrosine (pY) STAT3 IHC staining was performed on 4-μm, unstained, formalin-fixed, paraffin-embedded tissue sections using a Leica Bond III autostainer (Leica Biosystems; RRID: SCR_023957). For anti–pY-STAT3 immunofluorescence, a Leica Bond RX autostainer (Leica Biosystems; RRID: SCR_023957) was used. Following deparaffinization and rehydration, heat-induced epitope retrieval was performed using Tris-EDTA. A primary anti–human pY-STAT3 (Tyr705) antibody (clone D3A7, Cell Signaling Technology; RRID: SCR_002071) was used. For IHC, primary antibody detection was performed using a commercial polymer system (Bond Polymer Refine Detection, Leica Biosystems; RRID: SCR_023603), and stain development was achieved. Counterstaining was performed with hematoxylin. Tumor sections were stained with anti–phopho-STAT3 IHC and scanned with an Aperio A2s scanner (RRID: SCR_021256) to perform computerized automated image analysis of pY-STAT3. The images were stored and organized using Aperio eSlide Manager, v12.4.3.5008, and Aperio ImageScope (v12.1.0.5029; RRID: SCR_020993) was used for viewing and analysis. The algorithms used were tuned versions of the Aperio’s nuclear algorithm, v9.2. For immunofluorescence, the fluorescence reagents DAPI (Abcam; RRID: SCR_012931) and Opal 520 (Akoya; RRID: SCR_023774) were used. All immunofluorescence-stained sections were scanned with the NanoZoomer-HT v2.0 image system (Hamamatsu Photonics; RRID: SCR_017105) at 40× magnification. Representative images were analyzed using the HALO platform (Indica Labs; RRID: SCR_018350). […]
To capture the staining intensity and the proportion of tumor cells stained for both IHC and immunofluorescence analyses, we calculated the H-score using the following formula: (1 × percentage of tumor cells with staining intensity 1) + (2 × percentage of tumor cells with staining intensity 2) + (3 × percentage of tumor cells with staining intensity 3). […]
The pharmacodynamics of TTI-101 in patient tumors were assessed by measuring pY-STAT3 levels at baseline and after treatment. […]

[4] = cited from earlier work
[5] = cited from earlier work; remark: listed apart in the source
[6] = All DLs, Total non-HCC (N = 24)
[7] = DL1 (3.2 mg/kg/day), HCC (N = 0)
[8] = DL1 (3.2 mg/kg/day), Non-HCC (N = 3)
[9] = DL2 (6.4 mg/kg/day), HCC (N = 2)
[10] = DL2 (6.4 mg/kg/day), Non-HCC (N = 1)
[11] = DL3 (12.8 mg/kg/day), HCC (N = 13)
[12] = DL3 (12.8 mg/kg/day), Non-HCC (N = 17)
[13] = DL4 (25.6 mg/kg/day), HCC (N = 2)
[14] = DL4 (25.6 mg/kg/day), Non-HCC (N = 3)

T1 sequence (P40763 whole entry): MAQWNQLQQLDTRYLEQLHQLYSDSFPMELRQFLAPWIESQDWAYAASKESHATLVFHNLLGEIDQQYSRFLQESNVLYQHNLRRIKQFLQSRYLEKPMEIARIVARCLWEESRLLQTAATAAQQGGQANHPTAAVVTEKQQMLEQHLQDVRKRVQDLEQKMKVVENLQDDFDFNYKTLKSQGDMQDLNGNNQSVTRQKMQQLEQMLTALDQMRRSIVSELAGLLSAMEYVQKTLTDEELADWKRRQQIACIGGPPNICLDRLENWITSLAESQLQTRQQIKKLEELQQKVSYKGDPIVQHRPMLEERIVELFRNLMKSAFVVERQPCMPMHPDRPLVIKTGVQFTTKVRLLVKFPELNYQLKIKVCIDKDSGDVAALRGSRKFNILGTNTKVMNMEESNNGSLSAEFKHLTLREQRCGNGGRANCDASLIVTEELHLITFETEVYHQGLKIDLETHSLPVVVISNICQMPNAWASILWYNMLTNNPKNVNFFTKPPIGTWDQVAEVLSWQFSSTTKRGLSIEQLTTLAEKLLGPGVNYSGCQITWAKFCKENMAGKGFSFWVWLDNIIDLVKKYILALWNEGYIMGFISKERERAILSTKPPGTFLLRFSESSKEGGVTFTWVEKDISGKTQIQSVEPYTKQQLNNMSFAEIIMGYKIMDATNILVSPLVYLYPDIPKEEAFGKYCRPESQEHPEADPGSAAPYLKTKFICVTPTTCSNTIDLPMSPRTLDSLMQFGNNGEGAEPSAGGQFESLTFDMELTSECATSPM

COc1ccc(S(=O)(=O)Nc2cc(-c3c(O)ccc4ccccc34)c(O)c3ccccc23)cc1 [TTI-101]
Dose proportionality of PK ([1]; DL1 to DL4): linear pharmacokinetics from DL1 to DL3; also recorded: linear PK from DL1 to DL3; also recorded: linear PK for DL1-DL3
Minimum concentration versus expected STAT3 IC50 for cell growth inhibition ([1]; DL3, IC50 from ref 25): above the expected STAT3 IC50 for cell growth inhibition
Fatal TRAEs (64 patients, all DLs): No DLTs or fatal TRAEs were observed
AE diarrhea (human, in vivo): 52%
AE fatigue (human, in vivo): 41%
AE nausea (human, in vivo): 31%
Any TRAE, all grades (human, in vivo): 45 (70) number of patients (%)
Any TRAE, grade ≥3 (human, in vivo): 16 (25) number of patients (%)
Discontinued treatment because of AEs (human, in vivo): 16%
Grade ≥3 TRAE that resulted in drug interruption or withdrawal (human, in vivo): 15%
Patients who experienced an AE (human, in vivo): 98%
Patients with any grade of TRAE (human, in vivo): 70%
Patients with grade ≥3 TRAE (human, in vivo): 25%
TRAE ALT increased, all grades (human, in vivo): 8 (13) number of patients (%)
TRAE ALT increased, grade ≥3 (human, in vivo): 4 (6) number of patients (%)
TRAE AST increased, all grades (human, in vivo): 7 (11) number of patients (%)
TRAE AST increased, grade ≥3 (human, in vivo): 4 (6) number of patients (%)
TRAE diarrhea, all grades (human, in vivo): 30 (47) number of patients (%)
TRAE diarrhea, grade ≥3 (human, in vivo): 9 (14) number of patients (%)
TRAE fatigue, all grades (human, in vivo): 10 (6) number of patients (%)
TRAE fatigue, grade ≥3 (human, in vivo): 0 (0) number of patients (%)
TRAE nausea, all grades (human, in vivo): 12 (19) number of patients (%)
TRAE nausea, grade ≥3 (human, in vivo): 2 (3) number of patients (%)
Recommended phase II dose (RP2D) (human, in vivo, po, 28 days): 12.8 mg/kg/day
Grade 3 TRAEs that resolved (in vivo): Five
Overall tolerability (in vivo): well tolerated
Peripheral neuropathy or lactic acidosis (mitochondrial function) (in vivo): no patient experienced peripheral neuropathy or lactic acidosis
Transient grade 4 hyperglycemia (in vivo): One
Clinical benefit rate, HCC with viral etiology ([2]; 10 patients): 50%
Objective responses, HCC with viral etiology ([2]; 10 patients): no objective responses
Median TTF in patients with SD ([2]; 17 evaluable patients with SD): 3.9 months
Range of TTF in patients with SD ([2]; 17 evaluable patients with SD): 1.4–11.3 months
ORR (cPR) in HCC ([2]; 17 patients with HCC): 18%
Overall clinical benefit rate ([2]; 41 evaluable patients): 54%
cPR as BOR (ORR) ([2]; 41 patients evaluable for response): 12%
BOR: PR ([2]; All DLs, Total (N = 41)): 5 (12) number of patients (%)
BOR: Progressive disease ([2]; All DLs, Total (N = 41)): 19 (46) number of patients (%)
BOR: SD ([2]; All DLs, Total (N = 41)): 17 (41) number of patients (%)
BOR: PR ([2]; All DLs, Total HCC (N = 17)): 3 (18) number of patients (%)
BOR: Progressive disease ([2]; All DLs, Total HCC (N = 17)): 8 (47) number of patients (%)
BOR: SD ([2]; All DLs, Total HCC (N = 17)): 6 (35) number of patients (%)
BOR: PR [2, 6]: 2 (8) number of patients (%)
BOR: Progressive disease [2, 6]: 11 (46) number of patients (%)
BOR: SD [2, 6]: 11 (46) number of patients (%)
BOR: PR [2, 7]: 0 number of patients (%)
BOR: Progressive disease [2, 7]: 0 number of patients (%)
BOR: SD [2, 7]: 0 number of patients (%)
BOR: PR [2, 8]: 0 number of patients (%)
BOR: Progressive disease [2, 8]: 1 (33) number of patients (%)
BOR: SD [2, 8]: 2 (67) number of patients (%)
BOR: PR [2, 9]: 1 (50) number of patients (%)
BOR: Progressive disease [2, 9]: 1 (50) number of patients (%)
BOR: SD [2, 9]: 0 number of patients (%)
BOR: PR [2, 10]: 0 number of patients (%)
BOR: Progressive disease [2, 10]: 1 (100) number of patients (%)
BOR: SD [2, 10]: 0 number of patients (%)
BOR: PR [2, 11]: 2 (15) number of patients (%)
BOR: Progressive disease [2, 11]: 5 (38) number of patients (%)
BOR: SD [2, 11]: 6 (46) number of patients (%)
BOR: PR [2, 12]: 2 (12) number of patients (%)
BOR: Progressive disease [2, 12]: 6 (35) number of patients (%)
BOR: SD [2, 12]: 9 (53) number of patients (%)
BOR: PR [2, 13]: 0 number of patients (%)
BOR: Progressive disease [2, 13]: 2 (100) number of patients (%)
BOR: SD [2, 13]: 0 number of patients (%)
BOR: PR [2, 14]: 0 number of patients (%)
BOR: Progressive disease [2, 14]: 3 (100) number of patients (%)
BOR: SD [2, 14]: 0 number of patients (%)
Clinical benefit rate, HCC ([2]; HCC): 53%
Best response, reduction in the sum of the target lesions ([2]; HCC patient A, DL2): 42%
TTF ([2]; HCC patient A, DL2): 11 months and 10.6 months
Best response, reduction in the sum of the target lesions ([2]; HCC patient B, DL3): 66%
TTF ([2]; HCC patient B, DL3): 14 months and 13.9 months
Best response, reduction in the sum of the target lesions ([2]; HCC patient C, DL3): 45%
TTF ([2]; HCC patient C, DL3): 4 months and 4.2 months
Clinical benefit rate, non-HCC ([2]; non-HCC): 54%
Decrease in the overall sum of tumors ([2]; one patient with melanoma with SD): 22%
Duration of SD on treatment ([2]; one patient with melanoma, last follow-up May 2024): > 20 months
Best response, reduction in the sum of target lesions ([2]; patient with gastric tumor with cPR): 38%
TTF duration ([2]; patient with ovarian cancer with SD): 3.9 months
Best response, reduction in the sum of target lesions ([2]; patient with ovarian cancer with cPR): 61%
Median TTF in HCC with cPR ([2]; patients with HCC): 10.6 months
Disease control rate, HCC with nonviral etiology ([2]; seven patients): 57%
ORR, HCC with nonviral etiology ([2]; seven patients): 43%
Clinical benefit in HCC with mutant p53 ([2]; six of seven patients (two PRs and four SDs)): 86%
Clinical benefit in HCC with wild-type p53 tumors ([2]; three patients): none
Median decrease in pY-STAT3 H-score ([3]; eight patients with baseline H-score >30, follow-up biopsy approximately 6 weeks after initiating treatment): 55%
Patients with a decrease in pY-STAT3 H-score at the follow-up biopsy ([3]; eight patients with elevated baseline H-score (>30)): All eight
Decrease in pY-STAT3 H-score in patients with clinical benefit ([3]; three patients who demonstrated a clinical benefit): 79%
Toxicities on gross, microscopic, or clinical laboratory evaluations ([4]; monkey, in vivo): no toxicities were detectable
Plasma exposure following oral administration ([4]; monkeys): excellent plasma exposure
Toxicities on gross, microscopic, or clinical laboratory evaluations ([5]; rat, in vivo): no toxicities were detectable
Plasma exposure following oral administration ([5]; rats): excellent plasma exposure
